Assay results: patent publication US7951829B2, “Benzimidazole modulators of VR1” (Janssen Pharmaceutica NV, priority 2006, dated 2011)

Target: T1, hVR1 (Homo sapiens, UniProt Q8NER1)
T1 construct: expressed in transfected cells; host or cells: HEK293
Assay: Human VR1 (hVR1) Functional Assay (FLIPR intracellular calcium, capsaicin challenge)
Assay type: cell-based
Conditions: capsaicin 0.030 μM, HEK293 cells expressing hVR1; for inhibition at 1 µM: test concentration 1 μM

T1 sequence (Q8NER1 whole entry): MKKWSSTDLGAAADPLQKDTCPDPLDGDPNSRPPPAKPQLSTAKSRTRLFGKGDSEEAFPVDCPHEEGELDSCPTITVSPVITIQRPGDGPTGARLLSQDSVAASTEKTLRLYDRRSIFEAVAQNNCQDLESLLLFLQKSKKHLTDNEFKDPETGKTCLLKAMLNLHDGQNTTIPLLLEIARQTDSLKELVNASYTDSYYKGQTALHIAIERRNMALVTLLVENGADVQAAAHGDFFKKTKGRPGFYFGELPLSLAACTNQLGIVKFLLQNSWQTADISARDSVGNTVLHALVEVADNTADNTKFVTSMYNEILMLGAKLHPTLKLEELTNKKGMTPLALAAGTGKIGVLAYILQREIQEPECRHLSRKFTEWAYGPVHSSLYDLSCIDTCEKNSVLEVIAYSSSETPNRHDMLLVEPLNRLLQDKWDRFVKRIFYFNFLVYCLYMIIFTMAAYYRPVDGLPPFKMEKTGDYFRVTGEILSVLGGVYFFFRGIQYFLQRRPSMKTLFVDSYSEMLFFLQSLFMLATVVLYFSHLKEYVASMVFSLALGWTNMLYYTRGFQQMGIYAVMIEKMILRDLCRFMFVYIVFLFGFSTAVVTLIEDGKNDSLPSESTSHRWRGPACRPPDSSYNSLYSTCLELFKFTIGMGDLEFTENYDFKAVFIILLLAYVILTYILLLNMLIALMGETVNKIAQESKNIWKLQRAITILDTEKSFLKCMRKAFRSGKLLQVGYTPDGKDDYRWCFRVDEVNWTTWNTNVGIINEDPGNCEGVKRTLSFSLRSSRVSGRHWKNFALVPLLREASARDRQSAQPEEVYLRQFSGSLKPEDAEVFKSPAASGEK

| SMILES | IC50 | inhibition at 1 µM |
| --- | --- | --- |
| CC(C)(C)c1ccc(/C=C/c2nc3cc(-c4ccccc4CO)ccc3[nH]2)cc1 [Cpd 12, (E)-(2-{2-[2-(4-tert-butyl-phenyl)-vinyl]-1H-benzimidazol-5-yl}-phenyl)-methanol] | 10 nM | 100% |
| CNS(=O)(=O)c1ccccc1-c1ccc2[nH]c(/C=C/c3ccc(C)cc3)nc2c1 [Cpd 314, (E)-N-methyl-2-[2-(2-p-tolyl-vinyl)-1H-benzimidazol-5-yl]-benzenesulfonamide] | 18 nM | 100% |
| CC(C)(O)c1ccccc1-c1ccc2[nH]c([C@@H]3C[C@H]3c3ccc(C(F)(F)F)cc3)nc2c1 [Cpd 501, 2-(2-{2-[(1R,2R)-2-(4-trifluoromethyl-phenyl)-cyclopropyl]-1H-benzimidazol-5-yl}-phenyl)-propan-2-ol] | 85 nM | 99% |
| CS(=O)(=O)c1ccc(/C=C/c2nc3cc(-c4ccccc4S(N)(=O)=O)ccc3[nH]2)cc1 [Cpd 85, (E)-2-{2-[2-(4-methanesulfonyl-phenyl)-vinyl]-1H-benzimidazol-5-yl}-benzenesulfonamide] | – | 16% |
| O=S(=O)(CC(F)(F)F)Nc1ccccc1-c1ccc2[nH]c(/C=C/c3ccc(C(F)(F)F)cc3)nc2c1 [Cpd 459, (E)-2,2,2-trifluoro-ethanesulfonic acid (2-{2-[2-(4-trifluoromethyl-phenyl)-vinyl]-1H-benzimidazol-5-yl}-phenyl)-amide] | – | 0% |
| CNS(=O)(=O)c1ccccc1-c1ccc2[nH]c(/C=C/c3ccc(C(F)(F)F)cc3C(F)(F)F)nc2c1 [Cpd 455, (E)-2-{2-[2-(2,4-bis-trifluoromethyl-phenyl)-vinyl]-1H-benzimidazol-5-yl}-N-methyl-benzenesulfonamide] | 17 nM | 100% |
| NS(=O)(=O)c1ccccc1-c1ccc2[nH]c(CCc3ccccc3Cl)nc2c1 [Cpd 402, 2-{2-[2-(2-chloro-phenyl)-ethyl]-1H-benzimidazol-5-yl}-benzenesulfonamide] | 38 nM | 93% |
| CC(C)(C)c1ccc(/C=C/c2nc3cc(-c4ccccc4NS(C)(=O)=O)c(C(F)(F)F)cc3[nH]2)cc1 [Cpd 55, (E)-N-(2-{2-[2-(4-tert-butyl-phenyl)-vinyl]-6-trifluoromethyl-1H-benzimidazol-5-yl}-phenyl)-methanesulfonamide] | – | 14% |
| CN(C)c1ccc(/C=C/c2nc3cc(-c4ccccc4NS(C)(=O)=O)ccc3[nH]2)cc1 [Cpd 413, (E)-N-(2-{2-[2-(4-dimethylamino-phenyl)-vinyl]-1H-benzimidazol-5-yl}-phenyl)-methanesulfonamide] | 240 nM | 82% |
| NS(=O)(=O)c1ccccc1-c1ccc2[nH]c(/C=C/c3ccc(F)cc3F)nc2c1 [Cpd 357, (E)-2-{2-[2-(2,4-difluoro-phenyl)-vinyl]-1H-benzimidazol-5-yl}-benzenesulfonamide] | 8 nM | 100% |
| CNS(=O)(=O)c1ccccc1-c1ccc2[nH]c(/C=C/c3ccc(C(=O)NC(C)C)cc3)nc2c1 [Cpd 450, (E)-N-isopropyl-4-{2-[5-(2-methylsulfamoyl-phenyl)-1H-benzimidazol-2-yl]-vinyl}-benzamide] | – | 27% |
| CSc1ccccc1-c1ccc2[nH]c(/C=C/c3ccc(C(F)(F)F)cc3)nc2c1 [Cpd 480, (E)-5-(2-methylsulfanyl-phenyl)-2-[2-(4-trifluoromethyl-phenyl)-vinyl]-1H-benzimidazole] | > 500 nM | – |
| NS(=O)(=O)c1ccccc1-c1ccc2[nH]c(CCc3cc(C(F)(F)F)ccc3C(F)(F)F)nc2c1 [Cpd 388, 2-{2-[2-(2,5-bis-trifluoromethyl-phenyl)-ethyl]-1H-benzimidazol-5-yl}-benzenesulfonamide] | 54 nM | 99% |
| CC(C)(O)c1ccccc1-c1ccc2[nH]c(C3CC3c3ccc(C(F)(F)F)cc3)nc2c1 (stereo not shown) [Cpd 471, 2-(2-{2-[2-(4-trifluoromethyl-phenyl)-cyclopropyl]-1H-benzimidazol-5-yl}-phenyl)-propan-2-ol] | 10 nM | 100% |
| CNS(=O)(=O)c1ccccc1-c1ccc2[nH]c(/C=C/c3ccc(Cl)cc3F)nc2c1 [Cpd 339, (E)-2-{2-[2-(4-chloro-2-fluoro-phenyl)-vinyl]-1H-benzimidazol-5-yl}-N-methyl-benzenesulfonamide] | 27 nM | 99% |
| NS(=O)(=O)c1ccccc1-c1ccc2[nH]c(CCc3cc(F)cc(F)c3)nc2c1 [Cpd 396, 2-{2-[2-(3,5-difluoro-phenyl)-ethyl]-1H-benzimidazol-5-yl}-benzenesulfonamide] | 13 nM | 99% |
| NS(=O)(=O)c1ccccc1-c1ccc2[nH]c(/C=C/c3ccc(SC(F)(F)F)cc3)nc2c1 [Cpd 380, (E)-2-{2-[2-(4-trifluoromethylsulfanyl-phenyl)-vinyl]-1H-benzimidazol-5-yl}-benzenesulfonamide] | 12 nM | 99% |

| SMILES | IC50 | inhibition at 1 µM |
| --- | --- | --- |
| CC(=O)Nc1ccccc1-c1ccc2[nH]c(/C=C/c3ccc(SC(F)(F)F)cc3)nc2c1 [Cpd 37, (E)-N-(2-{2-[2-(4-trifluoromethylsulfanyl-phenyl)-vinyl]-1H-benzimidazol-5-yl}-phenyl)-acetamide] | – | 18% |
| CCOc1ccc(/C=C/c2nc3cc(-c4ccccc4NS(C)(=O)=O)ccc3[nH]2)cc1 [Cpd 414, (E)-N-(2-{2-[2-(4-ethoxy-phenyl)-vinyl]-1H-benzimidazol-5-yl}-phenyl)-methanesulfonamide] | 140 nM | 98% |
| CNS(=O)(=O)c1ccccc1-c1ccc2[nH]c(/C=C/c3ccc(F)c(Br)c3)nc2c1 [Cpd 317, (E)-2-{2-[2-(3-bromo-4-fluoro-phenyl)-vinyl]-1H-benzimidazol-5-yl}-N-methyl-benzenesulfonamide] | 11 nM | 101% |
| O=C(CO)c1ccccc1-c1ccc2[nH]c(/C=C/c3ccc(C(F)(F)F)cc3)nc2c1 [Cpd 311, (E)-2-hydroxy-1-(2-{2-[2-(4-trifluoromethyl-phenyl)-vinyl]-1H-benzimidazol-5-yl}-phenyl)-ethanone] | 54 nM | 99% |
| CNS(=O)(=O)c1ccccc1-c1ccc2[nH]c(/C=C/c3ccccc3C(F)(F)F)nc2c1 [Cpd 343, (E)-N-methyl-2-{2-[2-(2-trifluoromethyl-phenyl)-vinyl]-1H-benzimidazol-5-yl}-benzenesulfonamide] | 243 nM | 82% |
| CC(C)(C)OC(=O)Nc1ccccc1-c1ccc2[nH]c(C3CC3c3ccc(C(F)(F)F)cc3)nc2c1 (stereo not shown) [Cpd 473, (2-{2-[2-(4-trifluoromethyl-phenyl)-cyclopropyl]-1H-benzimidazol-5-yl}-phenyl)-carbamic acid tert-butyl ester] | > 500 nM | – |
| NS(=O)(=O)c1ccccc1-c1ccc2[nH]c(/C=C/c3ccc(Cl)cc3Cl)nc2c1 [Cpd 437, (E)-2-{2-[2-(2,4-dichloro-phenyl)-vinyl]-1H-benzimidazol-5-yl}-benzenesulfonamide] | 24 nM | 97% |
| CNS(=O)(=O)c1ccccc1-c1ccc2[nH]c(/C=C/c3ccc(Cl)cc3S(C)(=O)=O)nc2c1 [Cpd 340, (E)-2-{2-[2-(4-chloro-2-methanesulfonyl-phenyl)-vinyl]-1H-benzimidazol-5-yl}-N-methyl-benzenesulfonamide] | 62 nM | 98% |
| NS(=O)(=O)c1ccccc1-c1ccc2[nH]c(CCc3ccc(S(=O)(=O)C(F)(F)F)cc3)nc2c1 [Cpd 131, 2-{2-[2-(4-trifluoromethanesulfonyl-phenyl)-ethyl]-1H-benzimidazol-5-yl}-benzenesulfonamide] | 31 nM | 96% |
| CS(=O)(=O)Nc1ccccc1-c1ccc2[nH]c(/C=C/c3ccc(Cl)c(Cl)c3)nc2c1 [Cpd 416, (E)-N-(2-{2-[2-(3,4-dichloro-phenyl)-vinyl]-1H-benzimidazol-5-yl}-phenyl)-methanesulfonamide] | 120 nM | 96% |
| NS(=O)(=O)c1ccccc1-c1ccc2[nH]c(/C=C/c3ccc(Br)cc3)nc2c1 [Cpd 363, (E)-2-{2-[2-(4-bromo-phenyl)-vinyl]-1H-benzimidazol-5-yl}-benzenesulfonamide] | 12 nM | 98% |
| NS(=O)(=O)c1ccccc1-c1ccc2[nH]c(/C=C/c3ccc(Cl)cc3F)nc2c1 [Cpd 428, (E)-2-{2-[2-(4-chloro-2-fluoro-phenyl)-vinyl]-1H-benzimidazol-5-yl}-benzenesulfonamide] | 7 nM | 100% |
| NS(=O)(=O)c1ccccc1-c1ccc2[nH]c(CCc3cccc(F)c3F)nc2c1 [Cpd 394, 2-{2-[2-(2,3-difluoro-phenyl)-ethyl]-1H-benzimidazol-5-yl}-benzenesulfonamide] | 6 nM | 98% |
| CC(C)(O)c1ccccc1-c1ccc2[nH]c([C@H]3C[C@@H]3c3ccc(C(F)(F)F)cc3)nc2c1 [Cpd 503, 2-(2-{2-[(1S,2S)-2-(4-trifluoromethyl-phenyl)-cyclopropyl]-1H-benzimidazol-5-yl}-phenyl)-propan-2-ol] | 10 nM | 93% |
| NS(=O)(=O)c1ccccc1-c1ccc2[nH]c(/C=C/c3ccc(F)c(C(F)(F)F)c3)nc2c1 [Cpd 369, (E)-2-{2-[2-(4-fluoro-3-trifluoromethyl-phenyl)-vinyl]-1H-benzimidazol-5-yl}-benzenesulfonamide] | 8 nM | 99% |
| NS(=O)(=O)c1ccccc1-c1ccc2[nH]c(/C=C/c3cc(F)ccc3F)nc2c1 [Cpd 360, (E)-2-{2-[2-(2,5-difluoro-phenyl)-vinyl]-1H-benzimidazol-5-yl}-benzenesulfonamide] | 46 nM | 98% |
| CC(C)(O)c1ccccc1-c1ccc2[nH]c(C3CC3c3ccc(Cl)cc3)nc2c1 (stereo not shown) [Cpd 198, 2-(2-{2-[2-(4-chloro-phenyl)-cyclopropyl]-1H-benzimidazol-5-yl}-phenyl)-propan-2-ol] | 10 nM | 95% |
